Experiments:
Assay type in all cases: physicochemical
[1] = Screening of stabilizer for colorant, overall statements (Example 13); settings: Tables 2-1 and 2-2
Description: (§1) Tween-20 (1%), Brij35 (1%), Triton X-100 (1%), deoxycholic acid (1%), imino-diacetic acid (IDA; 1 mM), ZnSO4 (0.1 mM), AlCl3 (0.1 mM), potassium ferrocyanate (0.01 mM), sorbitol (5%), glucose (5%), sodium nitrite (2 mM), dimethylsulfoxide (DMSO; 10%) (those substances are manufactured by Wako Pure Chemical Industries, Inc.), 2-hydroxypropyl-β-cyclodextrin (2HP β CD; 0.5%, 2%, 5%) and methyl-β-cyclodextrin (M β CD; 0.5%, 2%, 5%) (those substances are manufactured by Nihon Shokuhin Kako Co., Ltd.).
(§2) 500 μl of the R-1 reagent and 500 μl of the R-2 which had been incubated to 37° C. were mixed. The mixture was incubated to 37° C. for 2 minutes, and absorbance thereof (A0) was measured. The mixture was added with 10 μl of 500 μM hydrogen peroxide or distilled water. The whole was incubated to 37° C., and absorbance exactly 5 minutes after the addition of hydrogen peroxide (A1) was measured, to calculate a change in absorbance ΔA (A1-A0). The absorbance was measured using a wavelength of 750 nm when DA64 was used as the colorant, a wavelength of 660 nm when DA67 was used as the colorant, and a wavelength of 570 nm when 4-AA-TOOS was used as the colorant.
(§3) Immediately after the preparation of the reagent, the reagent was preserved at 37° C. for 2 days and 9 days, and measurement of sensitivity of a blank which was distilled water and of hydrogen peroxide was performed.

[2] = Screening of stabilizer for colorant, MBTH-TOOS (Example 13); settings: MBTH-TOOS, 37° C.; for blank (distilled water) change in absorbance: 570 nm, additives at conc. (1%; IDA 1 mM; Zn, Al 0.1 mM; ferrocyanide 0.01 mM; sorbitol 5%; DMSO 10%)
[3] = Screening of stabilizer for colorant, DA67 (Example 13); settings: 37° C.; for blank (distilled water) change in absorbance: DA-67, 660 nm; for change in absorbance when 500 μM of hydrogen peroxide was measured: DA-67
Description: (§4) The following substances were used as test samples. Note that concentrations described in parentheses each represent a final concentration of the substance in the reagent R-1.
as §1, §2, §3

[4] = Screening of stabilizer for colorant, DA64 (Example 13); settings: 37° C.; for blank (distilled water) change in absorbance: DA-64, 750 nm, additives at conc. (1%; IDA 1 mM; Zn, Al 0.1 mM; ferrocyanide 0.01 mM; sorbitol 5%; DMSO 10%); for change in absorbance when 500 μM of hydrogen peroxide was measured: DA-64
Description: as §4, §1, §2, §3

[5] = 0 days, additives at conc. (1%; IDA 1 mM; Zn, Al 0.1 mM; ferrocyanide 0.01 mM; sorbitol 5%; DMSO 10%)
[6] = 2 days, additives at conc. (1%; IDA 1 mM; Zn, Al 0.1 mM; ferrocyanide 0.01 mM; sorbitol 5%; DMSO 10%)
[7] = 9 days, additives at b284 conc. (Zn, Al 0.1 mM; ferrocyanide 0.01 mM)

Row | effect on the blank during preservation (in words) [1] | blank (distilled water) change in absorbance ([2]; 0 days) [Abs] | blank (distilled water) change in absorbance ([2]; 2 days) [Abs] | change in absorbance when 500 μM of hydrogen peroxide was measured ([2]; 0 days, cyclodextrin 0.5%) | change in absorbance when 500 μM of hydrogen peroxide was measured ([2]; 0 days, cyclodextrin 2.0%) | change in absorbance when 500 μM of hydrogen peroxide was measured ([2]; 0 days, cyclodextrin 5.0%) | change in absorbance when 500 μM of hydrogen peroxide was measured ([2]; 2 days, cyclodextrin 0.5%) | change in absorbance when 500 μM of hydrogen peroxide was measured ([2]; 2 days, cyclodextrin 2.0%) | change in absorbance when 500 μM of hydrogen peroxide was measured ([2]; 2 days, cyclodextrin 5.0%) | blank (distilled water) change in absorbance [3, 5] [Abs] | blank (distilled water) change in absorbance [3, 6] [Abs] | blank (distilled water) change in absorbance [3, 7] [Abs] | change in absorbance when 500 μM of hydrogen peroxide was measured ([3]; 0 days, cyclodextrin 0.5%) | change in absorbance when 500 μM of hydrogen peroxide was measured ([3]; 0 days, cyclodextrin 2.0%) | change in absorbance when 500 μM of hydrogen peroxide was measured ([3]; 0 days, cyclodextrin 5.0%) | change in absorbance when 500 μM of hydrogen peroxide was measured ([3]; 2 days, cyclodextrin 0.5%) | change in absorbance when 500 μM of hydrogen peroxide was measured ([3]; 2 days, cyclodextrin 2.0%) | change in absorbance when 500 μM of hydrogen peroxide was measured ([3]; 2 days, cyclodextrin 5.0%) | change in absorbance when 500 μM of hydrogen peroxide was measured ([3]; 9 days, cyclodextrin 0.5%) | change in absorbance when 500 μM of hydrogen peroxide was measured ([3]; 9 days, cyclodextrin 2.0%) | Substance | also measured
1 | suppressing effects on the blank | 0.166 | 0.815 | 0.199 | 0.200 | 0.203 | 0.145 | 0.155 | 0.159 | 0.119 | 0.762 | 1.822 | 0.531 | 0.522 | 0.528 | 0.301 | 0.306 | 0.309 | 0.277 | 0.279 | 2-hydroxypropyl-β-cyclodextrin [2HPβCD] | change in absorbance when 500 μM of hydrogen peroxide was measured ([3]; 9 days, cyclodextrin 5.0%): 0.281; blank (distilled water) change in absorbance ([4]; 0 days): −0.007 Abs; blank (distilled water) change in absorbance ([4]; 2 days): 0.007 Abs; blank (distilled water) change in absorbance ([4]; 9 days): 0.010 Abs; change in absorbance when 500 μM of hydrogen peroxide was measured ([4]; 0 days, cyclodextrin 0.5%): 0.375; change in absorbance when 500 μM of hydrogen peroxide was measured ([4]; 0 days, cyclodextrin 2.0%): 0.386; change in absorbance when 500 μM of hydrogen peroxide was measured ([4]; 0 days, cyclodextrin 5.0%): 0.385; change in absorbance when 500 μM of hydrogen peroxide was measured ([4]; 2 days, cyclodextrin 0.5%): 0.315; change in absorbance when 500 μM of hydrogen peroxide was measured ([4]; 2 days, cyclodextrin 2.0%): 0.322; change in absorbance when 500 μM of hydrogen peroxide was measured ([4]; 2 days, cyclodextrin 5.0%): 0.326; change in absorbance when 500 μM of hydrogen peroxide was measured ([4]; 9 days, cyclodextrin 0.5%): 0.251; change in absorbance when 500 μM of hydrogen peroxide was measured ([4]; 9 days, cyclodextrin 2.0%): 0.269; change in absorbance when 500 μM of hydrogen peroxide was measured ([4]; 9 days, cyclodextrin 5.0%): 0.271
2 | suppressing effects on the blank | 0.115 | 0.757 | 0.175 | 0.18 | 0.181 | 0.135 | 0.136 | 0.145 | 0.133 | 0.657 | 1.430 | 0.516 | 0.519 | 0.515 | 0.355 | 0.361 | 0.364 | 0.306 | 0.311 | methyl-β-cyclodextrin [MβCD] | change in absorbance when 500 μM of hydrogen peroxide was measured ([3]; 9 days, cyclodextrin 5.0%): 0.323; blank (distilled water) change in absorbance ([4]; 0 days): −0.01 Abs; blank (distilled water) change in absorbance ([4]; 2 days): 0.005 Abs; blank (distilled water) change in absorbance ([4]; 9 days): 0.006 Abs; change in absorbance when 500 μM of hydrogen peroxide was measured ([4]; 0 days, cyclodextrin 0.5%): 0.371; change in absorbance when 500 μM of hydrogen peroxide was measured ([4]; 0 days, cyclodextrin 2.0%): 0.376; change in absorbance when 500 μM of hydrogen peroxide was measured ([4]; 0 days, cyclodextrin 5.0%): 0.365; change in absorbance when 500 μM of hydrogen peroxide was measured ([4]; 2 days, cyclodextrin 0.5%): 0.302; change in absorbance when 500 μM of hydrogen peroxide was measured ([4]; 2 days, cyclodextrin 2.0%): 0.309; change in absorbance when 500 μM of hydrogen peroxide was measured ([4]; 2 days, cyclodextrin 5.0%): 0.315; change in absorbance when 500 μM of hydrogen peroxide was measured ([4]; 9 days, cyclodextrin 0.5%): 0.266; change in absorbance when 500 μM of hydrogen peroxide was measured ([4]; 9 days, cyclodextrin 2.0%): 0.271; change in absorbance when 500 μM of hydrogen peroxide was measured ([4]; 9 days, cyclodextrin 5.0%): 0.273
